# Results published in publication PMC8906456, “Structural insights into the catalytic and inhibitory mechanisms of the flavin transferase FmnB in Listeria monocytogenes” (MedComm, 2022).
# Target: T1, FmnB (Listeria monocytogenes, UniProt A0A0H3GJF7)
# T1 construct: gene LMRG_02181; structure covers about residues 36-357
# T1 sequence (A0A0H3GJF7 20-360): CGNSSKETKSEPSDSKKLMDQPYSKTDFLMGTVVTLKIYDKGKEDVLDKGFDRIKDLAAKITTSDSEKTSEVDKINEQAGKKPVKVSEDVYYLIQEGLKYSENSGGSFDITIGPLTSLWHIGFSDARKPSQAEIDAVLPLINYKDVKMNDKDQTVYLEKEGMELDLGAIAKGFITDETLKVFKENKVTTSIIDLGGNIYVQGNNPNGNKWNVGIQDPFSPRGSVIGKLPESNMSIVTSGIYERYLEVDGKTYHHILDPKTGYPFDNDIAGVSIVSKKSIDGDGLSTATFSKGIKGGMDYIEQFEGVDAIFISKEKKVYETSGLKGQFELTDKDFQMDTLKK
# Assay: inhibition of PplA FMNylation, in-gel flavin fluorescence
# Type: biochemical
# Conditions: 10 uM to 4 mM inhibitor; 100 uM FAD, 50 uM PplA, 15 mM Mg2+, 16 °C; competitive
row,Structure (SMILES),"inhibition of PplA FMNylation, in-gel flavin fluorescence"
1,Nc1ncnc2c1ncn2[C@@H]1O[C@H](COP(=O)(O)OP(=O)(O)O)[C@@H](O)[C@H]1O [ADP],ADP demonstrated a much stronger inhibitory ability against FmnB activity (Figure 4A)
2,Nc1ncnc2c1ncn2[C@@H]1O[C@H](COP(=O)(O)O)[C@@H](O)[C@H]1O [AMP],"the enzymatic assays indicated that AMP, ADP and ATP could inhibit FmnB activity"
3,Nc1ncnc2c1ncn2[C@@H]1O[C@H](COP(=O)(O)OP(=O)(O)OP(=O)(O)O)[C@@H](O)[C@H]1O [ATP],"the enzymatic assays indicated that AMP, ADP and ATP could inhibit FmnB activity"
